Data: patent US10406146B2, “Heterocyclic compound” (TAKEDA PHARMACEUTICAL COMPANY LIMITED, priority 2015, dated 2019)

Legend:
Assay type in all cases: biochemical
HDAC9 enzyme = molecular target: T1, HDAC9 enzyme (Homo sapiens, UniProt Q9UKV0); test: HDAC9 enzyme inhibitory assay (HDAC-Glo class IIa); conditions: wells without enzyme = 100% inhibition; for inhibition at 1 µM: read-out: HDAC9 inhibitory rate (%) (1 μM)
T1 construct: transducing full length HDAC9 gene into Sf-9 insect cells; made in house; host or cells: Sf-9 insect cells
Description: HDAC9 Enzyme Inhibitory Assay
Enzyme was prepared by transducing full length HDAC9 gene into Sf-9 insect cells and purifying by Ni-NTA affinity column, and HDAC9 enzyme inhibitory activity was evaluated. Enzymes were used after preserved at −70° C. HDAC9 enzyme inhibitory activity of the test compound was measured using HDAC-Glo class IIa (Promega) according to the following experimental method. The test compound diluted with assay buffer (24 mM Tris-HCl (pH 7.5), 1 mM MgCl2, 0.35 mM KCl, 135 mM NaCl, 0.6 mM Glutathione, 0.01% Tween-20) was added to a 384-well plate by each 2 μL. Then, HDAC9 enzyme solution diluted with assay buffer was added thereto by each 2 μL, and the plate was incubated at room temperature for 60 min. After incubated, HDAC substrate-Developer solution prepared according to Promega protocol was added to the 384-well plate by each 4 μL, and the enzyme reaction was started. After reacting at room temperature for 20 min, luminescence level was measured using plate reader Envision (PerkinElmer). The inhibitory activity of each compound was calculated as a relative activity value when luminescence level in wells without enzyme is considered as 100% inhibition.

HDAC1 enzyme = molecular target: T2, HDAC1 enzyme (Homo sapiens, UniProt Q13547); test: HDAC1 enzyme inhibitory assay (HDAC-Glo I/II Assay kit); conditions: wells without enzyme = 100% inhibition; for inhibition at 1 µM: read-out: HDAC1 inhibitory rate (%) (1 μM)
T2 construct: transducing full length HDAC1 and HDAC6 genes into Sf-9 insect cells; GST; purchased SignalChem; host or cells: Sf-9 insect cells
Description: (§1) HDAC1/6 Enzyme Inhibitory Assay
(§2) HDAC1 enzyme and HDAC6 enzyme each prepared by transducing full length HDAC1 and HDAC6 genes into Sf-9 insect cells and purifying by GST affinity column were purchased from SignalChem. Using these enzymes, HDAC1 and/or HDAC6 enzyme inhibitory activities of the compound of the present invention were evaluated. Enzymes were used after preserved at −70° C. HDAC1 or HDAC6 enzyme inhibitory activity of the compound of the present invention was measured using HDAC-Glo™ I/II Assay kit (Promega) according to the following experimental method. The test compound diluted with assay buffer (24 mM Tris-HCl (pH 7.5), 1 mM MgCl2, 0.35 mM KCl, 135 mM NaCl, 0.6 mM Glutathione, 0.01% Tween-20) was added to a 384-well plate by each 2 μL. Then, HDAC1 or HDAC6 enzyme solution diluted with assay buffer was added thereto by each 4 μL, and the plate was incubated at room temperature for 60 min. After incubated, HDAC substrate-Developer solution prepared according to Promega protocol attached to the assay kit was added to the 384-well plate by each 2 μL, and the enzyme reaction was started. After reacting at room temperature for 20 min, luminescence level was measured using plate reader Envision (PerkinElmer). The inhibitory activity of each compound was calculated as a relative activity value when luminescence level in wells without enzyme is considered as 100% inhibition.

HDAC6 enzyme = molecular target: T3, HDAC6 enzyme (Homo sapiens, UniProt Q9UBN7); test: HDAC6 enzyme inhibitory assay (HDAC-Glo I/II Assay kit); conditions: wells without enzyme = 100% inhibition; for inhibition at 1 µM: read-out: HDAC6 inhibitory rate (%) (1 μM)
T3 construct: transducing full length HDAC1 and HDAC6 genes into Sf-9 insect cells; GST; purchased SignalChem; host or cells: Sf-9 insect cells
T3 sequence (Q9UBN7 1-1215): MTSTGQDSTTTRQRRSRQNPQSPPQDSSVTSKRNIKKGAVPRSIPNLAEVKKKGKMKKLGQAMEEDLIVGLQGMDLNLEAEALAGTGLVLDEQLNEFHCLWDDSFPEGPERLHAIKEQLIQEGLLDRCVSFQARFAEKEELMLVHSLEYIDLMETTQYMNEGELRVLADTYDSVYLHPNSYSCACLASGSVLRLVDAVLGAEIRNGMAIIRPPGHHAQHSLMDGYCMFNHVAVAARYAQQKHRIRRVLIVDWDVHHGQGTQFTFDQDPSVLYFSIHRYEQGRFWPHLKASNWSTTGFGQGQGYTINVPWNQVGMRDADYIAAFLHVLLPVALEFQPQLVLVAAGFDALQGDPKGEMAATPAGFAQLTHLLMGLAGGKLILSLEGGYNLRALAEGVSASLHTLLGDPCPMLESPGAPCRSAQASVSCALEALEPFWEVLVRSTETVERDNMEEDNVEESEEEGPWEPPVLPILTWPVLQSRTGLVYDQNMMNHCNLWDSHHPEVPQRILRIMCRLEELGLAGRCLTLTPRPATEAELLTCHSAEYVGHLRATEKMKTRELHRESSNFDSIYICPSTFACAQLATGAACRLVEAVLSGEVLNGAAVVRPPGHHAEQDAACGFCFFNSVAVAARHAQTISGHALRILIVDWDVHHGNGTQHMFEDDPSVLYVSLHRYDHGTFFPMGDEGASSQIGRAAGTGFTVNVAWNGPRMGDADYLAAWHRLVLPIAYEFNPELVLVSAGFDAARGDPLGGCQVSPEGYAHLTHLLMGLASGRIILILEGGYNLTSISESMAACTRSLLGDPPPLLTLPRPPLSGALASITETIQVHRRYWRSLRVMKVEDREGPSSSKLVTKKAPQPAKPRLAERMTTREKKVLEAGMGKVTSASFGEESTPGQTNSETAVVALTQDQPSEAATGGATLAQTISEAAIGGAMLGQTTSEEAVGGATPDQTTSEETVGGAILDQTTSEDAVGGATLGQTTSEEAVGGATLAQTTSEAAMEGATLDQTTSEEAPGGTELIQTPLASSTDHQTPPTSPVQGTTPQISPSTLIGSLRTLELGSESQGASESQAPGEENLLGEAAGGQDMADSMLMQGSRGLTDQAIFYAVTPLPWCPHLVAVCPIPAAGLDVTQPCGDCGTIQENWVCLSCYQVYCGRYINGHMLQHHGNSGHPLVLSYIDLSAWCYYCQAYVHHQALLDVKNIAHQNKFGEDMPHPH
Description: as §1, §2

T1 sequence (Q9UKV0 whole entry, species assumed): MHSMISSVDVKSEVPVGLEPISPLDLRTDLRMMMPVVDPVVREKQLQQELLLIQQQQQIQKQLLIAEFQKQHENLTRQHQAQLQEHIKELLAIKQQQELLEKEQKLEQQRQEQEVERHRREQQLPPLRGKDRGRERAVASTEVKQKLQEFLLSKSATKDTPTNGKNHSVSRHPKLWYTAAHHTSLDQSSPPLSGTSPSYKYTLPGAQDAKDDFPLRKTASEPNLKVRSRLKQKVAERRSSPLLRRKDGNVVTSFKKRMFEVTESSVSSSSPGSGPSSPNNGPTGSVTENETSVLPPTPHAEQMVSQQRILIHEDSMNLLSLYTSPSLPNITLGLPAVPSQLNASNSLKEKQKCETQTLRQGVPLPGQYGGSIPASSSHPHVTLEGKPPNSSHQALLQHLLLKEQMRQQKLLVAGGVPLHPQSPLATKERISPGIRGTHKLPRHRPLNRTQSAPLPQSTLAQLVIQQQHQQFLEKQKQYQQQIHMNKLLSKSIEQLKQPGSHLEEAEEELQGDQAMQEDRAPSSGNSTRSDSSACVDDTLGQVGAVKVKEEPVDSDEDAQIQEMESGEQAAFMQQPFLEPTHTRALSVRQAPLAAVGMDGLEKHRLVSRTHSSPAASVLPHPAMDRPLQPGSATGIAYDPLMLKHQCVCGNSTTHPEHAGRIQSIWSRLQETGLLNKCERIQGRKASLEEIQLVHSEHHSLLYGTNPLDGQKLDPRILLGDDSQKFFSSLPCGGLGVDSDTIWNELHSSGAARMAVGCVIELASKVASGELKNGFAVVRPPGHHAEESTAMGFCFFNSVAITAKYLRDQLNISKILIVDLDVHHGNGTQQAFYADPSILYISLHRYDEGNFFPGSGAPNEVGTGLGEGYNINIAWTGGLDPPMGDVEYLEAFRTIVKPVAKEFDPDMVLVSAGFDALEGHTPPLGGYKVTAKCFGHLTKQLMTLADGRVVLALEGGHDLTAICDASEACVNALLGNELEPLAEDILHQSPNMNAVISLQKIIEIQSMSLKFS
T2 sequence (Q13547 whole entry): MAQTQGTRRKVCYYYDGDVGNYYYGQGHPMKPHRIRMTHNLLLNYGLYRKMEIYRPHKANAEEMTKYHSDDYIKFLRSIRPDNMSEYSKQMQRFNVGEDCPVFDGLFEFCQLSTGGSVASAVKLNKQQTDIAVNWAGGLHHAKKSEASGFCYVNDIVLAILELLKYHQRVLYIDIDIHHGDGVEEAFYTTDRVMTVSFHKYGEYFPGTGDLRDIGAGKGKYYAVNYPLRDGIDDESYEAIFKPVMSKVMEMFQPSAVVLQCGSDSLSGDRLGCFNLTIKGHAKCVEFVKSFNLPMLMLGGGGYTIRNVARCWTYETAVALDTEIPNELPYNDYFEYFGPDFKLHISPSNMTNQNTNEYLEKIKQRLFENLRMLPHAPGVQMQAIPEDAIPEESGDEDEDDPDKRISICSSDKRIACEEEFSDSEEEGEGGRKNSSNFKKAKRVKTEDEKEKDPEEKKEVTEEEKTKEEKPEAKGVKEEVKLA

Row | Structure (SMILES) | inhibition at 1 µM (HDAC9 enzyme) | inhibition at 1 µM (HDAC1 enzyme) | inhibition at 1 µM (HDAC6 enzyme) | HDAC9 inhibitory rate (%) (1 μM) (HDAC9 enzyme) | HDAC1 inhibitory rate (%) (1 μM) (HDAC1 enzyme) | HDAC6 inhibitory rate (%) (1 μM) (HDAC6 enzyme)
1 | O=C(NCC1CCCCN1C(=O)Nc1ccc(-c2noc(C(F)(F)F)n2)cc1)c1ccc(C(F)(F)F)cc1 (stereo not drawn) [Example 18, 2-(((4-(trifluoromethyl)benzoyl)amino)methyl)-N-(4-(5-(trifluoromethyl)-1,2,4-oxadiazol-3-yl)phenyl)piperidine-1-carboxamide] | 39% | -7% | 2% | – | – | –
2 | N#Cc1ccccc1C(=O)NCC1CCCCN1C(=O)Nc1ccc(-c2noc(C(F)(F)F)n2)cc1 (stereo not drawn) [Example 19, 2-(((2-cyanobenzoyl)amino)methyl)-N-(4-(5-(trifluoromethyl)-1,2,4-oxadiazol-3-yl)phenyl)piperidine-1-carboxamide] | 72% | 15% | 2% | – | – | –
3 | N#Cc1cccc(C(=O)NCC2CCCCN2C(=O)Nc2ccc(-c3noc(C(F)(F)F)n3)cc2)c1 (stereo not drawn) [Example 20, 2-(((3-cyanobenzoyl)amino)methyl)-N-(4-(5-(trifluoromethyl)-1,2,4-oxadiazol-3-yl)phenyl)piperidine-1-carboxamide] | 95% | 32% | 4% | – | – | –
4 | N#Cc1ccc(C(=O)NCC2CCCCN2C(=O)Nc2ccc(-c3noc(C(F)(F)F)n3)cc2)cc1 (stereo not drawn) [Example 21, 2-(((4-cyanobenzoyl)amino)methyl)-N-(4-(5-(trifluoromethyl)-1,2,4-oxadiazol-3-yl)phenyl)piperidine-1-carboxamide] | 94% | 28% | 0% | – | – | –
5 | NC(=O)c1ccc(C(=O)NCC2CCCCN2C(=O)Nc2ccc(-c3noc(C(F)(F)F)n3)cc2)cc1 (stereo not drawn) [Example 22, N-((1-((4-(5-(trifluoromethyl)-1,2,4-oxadiazol-3-yl)phenyl)carbamoyl)piperidin-2-yl)methyl)terephthalamide] | 90% | 6% | 2% | – | – | –
6 | COc1ccccc1C(=O)NCC1CCCCN1C(=O)Nc1ccc(-c2noc(C(F)(F)F)n2)cc1 (stereo not drawn) [Example 23] | – | – | – | 86% | 41% | 4%
7 | COc1cccc(C(=O)NCC2CCCCN2C(=O)Nc2ccc(-c3noc(C(F)(F)F)n3)cc2)c1 (stereo not drawn) [Example 24, 2-(((3-methoxybenzoyl)amino)methyl)-N-(4-(5-(trifluoromethyl)-1,2,4-oxadiazol-3-yl)phenyl)piperidine-1-carboxamide] | 88% | 24% | 3% | – | – | –
8 | COc1ccc(C(=O)NCC2CCCCN2C(=O)Nc2ccc(-c3noc(C(F)(F)F)n3)cc2)cc1 (stereo not drawn) [Example 25, 2-(((4-methoxybenzoyl)amino)methyl)-N-(4-(5-(trifluoromethyl)-1,2,4-oxadiazol-3-yl)phenyl)piperidine-1-carboxamide] | 95% | 12% | 2% | – | – | –
9 | O=C(NCC1CCCCN1C(=O)Nc1ccc(-c2noc(C(F)(F)F)n2)cc1)c1ccc(O)cc1 (stereo not drawn) [Example 27, 2-(((4-hydroxybenzoyl)amino)methyl)-N-(4-(5-(trifluoromethyl)-1,2,4-oxadiazol-3-yl)phenyl)piperidine-1-carboxamide] | 93% | 37% | 3% | – | – | –
10 | CN(C)c1ccc(C(=O)NCC2CCCCN2C(=O)Nc2ccc(-c3noc(C(F)(F)F)n3)cc2)cc1 (stereo not drawn) [Example 29, 2-(((4-(dimethylamino)benzoyl)amino)methyl)-N-(4-(5-(trifluoromethyl)-1,2,4-oxadiazol-3-yl)phenyl)piperidine-1-carboxamide] | 88% | 1% | 1% | – | – | –
11 | O=C(NCC1CCCCN1C(=O)Nc1ccc(-c2noc(C(F)(F)F)n2)cc1)c1cccc(Cl)c1Cl (stereo not drawn) [Example 30, 2-(((2,3-dichlorobenzoyl)amino)methyl)-N-(4-(5-(trifluoromethyl)-1,2,4-oxadiazol-3-yl)phenyl)piperidine-1-carboxamide] | 70% | 4% | 1% | – | – | –
12 | O=C(NCC1CCCCN1C(=O)Nc1ccc(-c2noc(C(F)(F)F)n2)cc1)c1ccc(Cl)cc1Cl (stereo not drawn) [Example 31] | – | – | – | 38% | −12% | −1%

The next lines start with results.

Row | inhibition at 1 µM (HDAC9 enzyme) | inhibition at 1 µM (HDAC1 enzyme) | inhibition at 1 µM (HDAC6 enzyme) | Structure (SMILES) | HDAC9 inhibitory rate (%) (1 μM) (HDAC9 enzyme) | HDAC1 inhibitory rate (%) (1 μM) (HDAC1 enzyme) | HDAC6 inhibitory rate (%) (1 μM) (HDAC6 enzyme)
13 | 80% | 4% | 1% | O=C(NCC1CCCCN1C(=O)Nc1ccc(-c2noc(C(F)(F)F)n2)cc1)c1cccc(C(F)(F)F)c1 (stereo not drawn) [Example 17, 2-(((3-(trifluoromethyl)benzoyl)amino)methyl)-N-(4-(5-(trifluoromethyl)-1,2,4-oxadiazol-3-yl)phenyl)piperidine-1-carboxamide] | – | – | –
14 | 94% | 42% | 2% | O=C(NCC1CCCCN1C(=O)Nc1ccc(-c2noc(C(F)(F)F)n2)cc1)c1cccc(O)c1 (stereo not drawn) [Example 26, 2-(((3-hydroxybenzoyl)amino)methyl)-N-(4-(5-(trifluoromethyl)-1,2,4-oxadiazol-3-yl)phenyl)piperidine-1-carboxamide] | – | – | –
15 | 86% | 4% | 2% | CN(C)c1cccc(C(=O)NCC2CCCCN2C(=O)Nc2ccc(-c3noc(C(F)(F)F)n3)cc2)c1 (stereo not drawn) [Example 28, 2-(((3-(dimethylamino)benzoyl)amino)methyl)-N-(4-(5-(trifluoromethyl)-1,2,4-oxadiazol-3-yl)phenyl)piperidine-1-carboxamide] | – | – | –
16 | 62% | -10% | 0% | O=C(NCC1CCCCN1C(=O)Nc1ccc(-c2noc(C(F)(F)F)n2)cc1)c1ccc(Cl)c(Cl)c1 (stereo not drawn) [Example 32, 2-(((3,4-dichlorobenzoyl)amino)methyl)-N-(4-(5-(trifluoromethyl)-1,2,4-oxadiazol-3-yl)phenyl)piperidine-1-carboxamide] | – | – | –
17 | 48% | -5% | 0% | O=C(NCC1CCCCN1C(=O)Nc1ccc(-c2noc(C(F)(F)F)n2)cc1)c1cc(Cl)cc(Cl)c1 (stereo not drawn) [Example 33, 2-(((3,5-dichlorobenzoyl)amino)methyl)-N-(4-(5-(trifluoromethyl)-1,2,4-oxadiazol-3-yl)phenyl)piperidine-1-carboxamide] | – | – | –
